Measured values published in patent US5656256A (The University of North Carolina at Chapel Hill, priority 1994, dated 1997).

How the values were obtained:
[1] = target: T1, airway epithelial Na+ channels (Homo sapiens, UniProt P37088+P51168+P51170); assay: Short-circuit current (Isc) measurement of sodium transport in cultured human nasal epithelium, Ussing chamber; type: cell-based; details: for concentration achieving the same level of complete sodium channel blocking, less than amiloride: apical surface of human nasal epithelium, relative to amiloride
T1 construct: Cells from freshly excised specimens are protease isolated; endogenous in cells
T1 sequence (P37088 1-669): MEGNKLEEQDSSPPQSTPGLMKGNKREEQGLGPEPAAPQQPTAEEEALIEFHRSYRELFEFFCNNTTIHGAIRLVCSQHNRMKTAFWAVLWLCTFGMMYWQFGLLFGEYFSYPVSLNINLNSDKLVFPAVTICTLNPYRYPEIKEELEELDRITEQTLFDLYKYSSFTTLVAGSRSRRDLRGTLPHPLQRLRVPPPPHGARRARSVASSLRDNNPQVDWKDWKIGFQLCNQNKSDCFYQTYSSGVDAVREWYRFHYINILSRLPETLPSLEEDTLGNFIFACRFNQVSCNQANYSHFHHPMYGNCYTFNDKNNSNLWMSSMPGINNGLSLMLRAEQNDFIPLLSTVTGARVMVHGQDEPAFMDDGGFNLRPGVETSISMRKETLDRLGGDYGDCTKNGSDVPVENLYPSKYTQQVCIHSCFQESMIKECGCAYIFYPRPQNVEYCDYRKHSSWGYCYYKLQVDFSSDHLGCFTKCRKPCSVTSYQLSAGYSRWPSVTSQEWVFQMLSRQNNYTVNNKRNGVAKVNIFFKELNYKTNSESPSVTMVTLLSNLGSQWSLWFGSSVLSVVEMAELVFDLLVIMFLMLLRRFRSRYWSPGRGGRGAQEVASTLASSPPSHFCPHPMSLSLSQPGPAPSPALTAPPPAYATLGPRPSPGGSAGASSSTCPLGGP
T1 sequence (P51168 1-640): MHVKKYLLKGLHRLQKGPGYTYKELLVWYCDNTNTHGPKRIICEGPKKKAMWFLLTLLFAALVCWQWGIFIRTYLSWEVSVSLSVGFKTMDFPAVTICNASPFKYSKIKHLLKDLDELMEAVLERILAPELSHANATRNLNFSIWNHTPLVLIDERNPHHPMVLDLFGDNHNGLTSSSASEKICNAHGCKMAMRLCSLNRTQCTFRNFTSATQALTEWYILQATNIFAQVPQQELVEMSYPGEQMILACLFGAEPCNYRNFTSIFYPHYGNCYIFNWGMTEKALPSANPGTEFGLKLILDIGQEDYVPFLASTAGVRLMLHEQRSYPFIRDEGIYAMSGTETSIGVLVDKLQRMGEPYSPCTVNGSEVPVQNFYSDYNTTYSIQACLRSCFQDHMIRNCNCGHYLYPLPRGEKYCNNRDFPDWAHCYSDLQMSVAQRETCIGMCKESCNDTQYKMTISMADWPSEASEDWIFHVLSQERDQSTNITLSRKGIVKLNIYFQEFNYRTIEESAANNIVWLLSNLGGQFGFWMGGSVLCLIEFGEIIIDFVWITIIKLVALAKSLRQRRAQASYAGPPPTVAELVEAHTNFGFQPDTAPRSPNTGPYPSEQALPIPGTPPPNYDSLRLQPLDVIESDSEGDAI
T1 sequence (P51170 1-649): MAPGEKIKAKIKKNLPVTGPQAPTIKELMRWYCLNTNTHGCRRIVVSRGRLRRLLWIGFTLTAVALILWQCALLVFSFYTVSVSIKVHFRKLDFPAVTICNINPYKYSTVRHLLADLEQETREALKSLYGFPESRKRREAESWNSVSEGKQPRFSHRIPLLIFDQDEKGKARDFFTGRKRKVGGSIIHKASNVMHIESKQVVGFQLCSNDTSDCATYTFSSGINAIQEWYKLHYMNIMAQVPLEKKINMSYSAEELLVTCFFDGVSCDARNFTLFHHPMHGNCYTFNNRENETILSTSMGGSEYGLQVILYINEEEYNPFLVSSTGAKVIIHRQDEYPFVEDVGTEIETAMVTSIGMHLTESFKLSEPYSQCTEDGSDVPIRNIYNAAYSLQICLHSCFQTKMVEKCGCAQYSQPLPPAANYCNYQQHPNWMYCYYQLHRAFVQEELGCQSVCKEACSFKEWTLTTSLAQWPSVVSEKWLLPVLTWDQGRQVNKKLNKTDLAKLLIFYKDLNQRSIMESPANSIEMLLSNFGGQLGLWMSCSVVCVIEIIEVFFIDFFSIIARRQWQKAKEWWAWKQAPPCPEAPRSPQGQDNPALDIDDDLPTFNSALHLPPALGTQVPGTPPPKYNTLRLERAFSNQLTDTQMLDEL
Description: The cell culture procedures used in this example are performed as described in Willumsen, N. J., et al., Am. J. Physiol. 256:C1033-C1044 (Cell. Physiol. 25) (1989) and Yankaskas, J. R., et al., Am. Rev. Respir. Dis. 132:1281-1287 (1985). Cells from freshly excised specimens are protease isolated with protease XIV (Sigma, St, Louis, Mo.), concentrated,and plated on collagen membranes in the bottom of plastic-tissue culture cups. The cells are fed for 5 days with serum-free F-12 medium containing the following additives (F-12/7X): insulin, epidermal growth factor, cholera toxin, transferrin, hydrocortisone, triiodothyronine, and endothelial cell growth substance. Subsequently, they are fed with F-12/7X media supplemented (1:1) with 3T3 fibroblast-conditioned media containing 1% fetal bovine serum. After the fifth day in culture, the transepithelial potential difference (PD) developed by the culture is measured daily to detect the occurrence of confluency. Cell preparations are routinely studied within 1 day of the development of the maximal PD.
J. Physiol. (Cell Physiol. 25) 256:C1033-C1053 (1989).
The tissue preparation described in Example 1 is mounted in a modified (superfusion, not recirculating), miniature Ussing chamber interfaced to a voltage clamp that measures transepithelial PD and the PD response to constant current (I) pulses. The chamber contains 1 ml of bathing solution for each (apical; basolateral) surface of the preparation. The solution used as the vehicle for drug delivery is a Krebs bicarbonate Ringer solution (KBR) which approximates the ionic composition of plasma. This solution is warmed (37°) and gassed (95% oxygen, 5% CO2) to maintain pH 7.4. The cultured cells are superfused on both surfaces with KBR.
The measurement of sodium transport rates is performed by recording the spontaneous transepithelial PD (Vt) and responses of the PD to constant current pulses. From the relationship between Vt and induced Vt deflections, the transepithelial resistance (Rt) is calculated. The short-circuit current (Isc), or measure of sodium transport rate, is determined as Isc =Vt /Rt.
Each cultured human airway epithelial preparation is exposed to different concentrations (10^-8 M-10^-3 M) of a sodium-channel blocking drug on either the basolateral or apical surface for the dose response studies. To construct concentration-effect relationships of the response to the drugs, it was assumed that the same maximum response to a drug could be induced from each tissue culture preparation from the same individual.

[2] = target: T1, airway epithelial Na+ channels; assay: Persistence of Na+ absorption blockade after washout of drug, Ussing chamber; type: cell-based; details: 10^-5 M for 5 minutes to the luminal surface, then KBR perfusion; time for Isc to return to basal
Excerpt: In vivo, drug is delivered to the lungs as a single bolus. […] This Example illustrates the contribution of binding of drug to the target site (2) to the duration of drug action.
A protocol was designed to measure the duration of drug action after removal of drug from the airway surface liquid compartment. For this protocol, human airway epithelial preparations as described in Example 1 are mounted in modified Ussing chambers and interfaced to voltage clamps as described above in Example 2. Basal measurements of Isc in KBR are made and the steady state response to a 5 minute administration of a single maximal effective concentration (10^-5 M) of drug delivered to the luminal surface is measured. Following this step, administration of the drug is stopped, the lumen is perfused with standard KBR solutions, and the time required for Isc to return to baseline or basal levels is measured.

| Structure (SMILES) | potency as blocker of apical Na+ channels (in words) ([1]; steady-state inhibition of Na+ transport, human nasal epithelia) | concentration achieving the same level of complete sodium channel blocking, less than amiloride [1] | potency compared to amiloride (more potent by) [1] | duration of activity after washout compared to amiloride [2] |
| --- | --- | --- | --- | --- |
| N=C(N)NC(=O)c1nc(Cl)c(N)nc1N [amiloride] | significantly less potent than benzamil or phenamil |  |  |  |
| NC(=NCc1ccccc1)NC(=O)c1nc(Cl)c(N)nc1N [benzamil, 3,5-diamino-6-chloro-N-(benzylaminoaminomethylene)pyrazinecarboxamide] |  | approximately one | 1-1.5 log-concentration units | almost twice as long as amiloride |
| NC(=Nc1ccccc1)NC(=O)c1nc(Cl)c(N)nc1N [phenamil, 3,5-diamino-6-chloro-N-(phenylaminoaminomethylene)pyrazinecarboxamide] |  | approximately one | 1-1.5 log-concentration units | almost twice as long as amiloride |
